Assay results from paper PMC12119672, “Development and evaluation of [^11C]DPA-813 and [^18F]DPA-814: novel TSPO PET tracers insensitive to human single nucleotide polymorphism rs6971” (European Journal of Nuclear Medicine and Molecular Imaging, 2025).
Values joined by “and” are separate entries in the source; they are usually repeats but may differ in a detail not shown here. Equal entries are not always repeated. Marks after values point to notes of the source that are not given here. Values belong to the compound of their own block, whether it stands above or below them.

How the values were obtained:
WT human TSPO = target: T1, WT human TSPO (Homo sapiens, UniProt P30536); experiment: Competition radioligand binding vs [3H]PK 11195, membranes of transfected HEK-293T cells (WT TSPO); conditions: vs [3H]PK 11195 (10 nM), HEK-293T membranes, mean ± SEM; read-out: Ki WT hTSPO
T1 construct: expressed in transfected cells
T1 sequence (P30536 whole entry T147A): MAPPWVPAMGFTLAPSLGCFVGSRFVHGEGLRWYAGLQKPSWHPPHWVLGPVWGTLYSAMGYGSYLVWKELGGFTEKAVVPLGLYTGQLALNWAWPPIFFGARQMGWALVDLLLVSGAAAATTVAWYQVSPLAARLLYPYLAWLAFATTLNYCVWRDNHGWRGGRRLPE
Protocol: (§1) Binding affinities (Ki) to wild-type (WT) and A147T human TSPO were assessed using a previously published method. HEK-293T cells were stably transfected with WT and A147T TSPO. Membranes were isolated from each cell line using an Ultra-Turrax hand-held homogeniser. These cells have been previously validated as an in vitro model for low- and high-affinity TSPO binding. […] Non-specific binding was determined using a saturating concentration (1 µM) of non-tritiated PK 11195. This non-specific binding contributed less than 10% of total binding. Reactions were halted by filtering through a 96-well glass-fibre filter plate (Millipore), followed by eight washes with ice-cold 50 mM Tris HCl. Microscint 0 was added to the plate and resultant radioactivity-related photons were collected by a Microbeta 2450 (PerkinElmer). Ki values were fit to a competition binding curve fit on non-specific binding-corrected data using GraphPad Prism 10.0 (GraphPad). Results are presented as mean ± standard error of the mean (SEM) from at least three independent experiments. Binding affinities (Ki) to rat TSPO were measured in duplicate by Eurofins Panlabs Discovery Services (assay #226700) (Supplementary Fig. 12). Single-dose (10 µM) off-target in vitro screening was performed in duplicate by Eurofins Panlabs Discovery Services (Supplementary Table 5).
(§2) In vitro binding affinities (Ki) for human TSPO were initially assessed using a competition radioligand assay against [^3H]PK 11195 in our well-characterised assay using membranes isolated from transfected HEK-293T cells overexpressing either WT or A147T TSPO [32]. This structure-activity relationship study will be reported in a separate publication. […] Data for DPA-713 and DPA-714 are included for comparison.

A147T human TSPO = target: T2, A147T human TSPO (Homo sapiens, UniProt P30536); experiment: Competition radioligand binding vs [3H]PK 11195, membranes of transfected HEK-293T cells (A147T TSPO); conditions: vs [3H]PK 11195 (10 nM), HEK-293T membranes, mean ± SEM; read-out: Ki A147T hTSPO
T2 construct: expressed in transfected cells
T2 sequence (P30536 whole entry, stated change not applied): as the sequence (P30536 whole entry T147A) above, with A147T counted along it
Protocol: as §1, §2

[1] = distribution coefficient; cited from earlier work
[2] = tested on: EAE rat model (spinal cord); experiment: PET imaging in the EAE rat model; type: in vivo; conditions: dynamic PET 60 min, peak of clinical symptoms
[3] = Ex vivo metabolite analysis (plasma and brain) in wild-type rats; set-up: species or system rat; conditions: i.v.
Protocol: Metabolite analysis was conducted following the method outlined in a previous study. Wistar/RccHan (WIST) rats (Inotiv, the Netherlands) received intravenous injections of either [^11C]DPA-813 (30–50 MBq) or [^18F]DPA-814 (20–30 MBq). Rats were euthanized at 5, 15, and 45 min post-injection (n = 4 per time point). Plasma was separated from blood then processed through a C18 Sep-Pak (Waters, Milford, MA, USA). After washing with 3 mL of water to isolate the polar fraction, the non-polar fraction was eluted using 2 mL of methanol and 1 mL of water and subsequently analyzed by HPLC. The brain tissue was collected and homogenized in a mixture of MeCN and H2O (50/50, 4 mL) before centrifugation (5 min, 4000 rpm, 20 °C, Hettich Universal 32). The obtained supernatant was separated from the precipitate and analyzed via HPLC. Analytical HPLC was performed using a Dionex UltiMate 3000 HPLC system equipped with Chromeleon software (version 6.8), utilizing a Gemini C18 5-µm (10 × 250 mm) column (Phenomenex, Torrance, CA, USA). All fractions were assessed for radioactivity using a Wizard Gamma counter 1470 or 2480 (Wallac/PerkinElmer, Waltham, MA, USA).

TSPO in human MS tissues = experiment: Autoradiography on genotyped human MS brain tissue (HAB, MAB, LAB); type: binding
Excerpt: Brain tissues from MS patients (n = 7) were used in this study and were obtained from the MS centre of the Amsterdam University Medical Centers (AUMC). For some patient material, several brain tissues were available. The MS centre received permission from the Ethical Committee of the AUMC (Amsterdam, The Netherlands) to perform autopsies for tissue use and access to medical records for research purposes. All patients and controls, or their next of kin, had given informed consent for autopsy and use of brain tissue for research purposes.
TSPO rs6971 SNP was determined with a Taqman assay (C_2512465_20, ThermoFisher Scientific, The Netherlands). DNA was isolated from human MS brain tissue cryosections using a QIAmp mini kit from Qiagen according to the manufacturer’s recommendation. The concentration of the isolated DNA was determined on a nanodrop (NanoVue Plus, Biochrom). DNA concentration ranged from 45 to 246 µg/mL. QPCR was performed on a QuantStudio (Applied Biosystems, The Netherlands). Synthetic DNA (300 bp) for the two TSPO SNP alleles, rs6971-A, and rs6971-G, was used as a control for the Taqman assay. DNA samples were diluted 1/100 in milliQ water, and 4.5 µL was used for the QPCR. Control DNA sequences were reconstituted in 10 ng/mL in milliQ water. The final QPCR solution contained 5 µL TaqPath proAmp master mix (ThermoFisher Scientific, The Netherlands), 0.5 µL Taqman SNP, and 4.5 µL DNA. Results of the Taqman assay are summarised in Supplementary Tables 4 and Supplementary Fig. 2.
Human MS tissue cryosections (20 μm) were mounted on glass slides, air-dried, and stored at − 80 °C until needed. Prior to use, the sections were washed three times in PBS for 5 min each, then dried under an airflow. […] For blocking experiments, tissue sections were co-incubated with PK 11195 (10 µM) and the tracer. After incubation, sections were washed for 90 s three times each in ice-cold PBS and then dipped in deionized water twice. The sections were air-dried and exposed to a phosphor screen BAS-IP SR 2025 (General Electric, Eindhoven, The Netherlands). Phosphor screens were subsequently imaged using a Typhoon FLA 7000 imager (General Electric, Eindhoven, The Netherlands), and signal intensity was quantified using ImageLab software (BioRad, Lunteren, The Netherlands).

[4] = Ex vivo biodistribution in wild-type rats; set-up: species or system rat; conditions: i.v.
Protocol: Wistar/RccHan (WIST) rats from Inotiv, the Netherlands, received intravenous injections via a tail vein catheter of either [^11C]DPA-813 (30–50 MBq) or [^18F]DPA-814 (20–30 MBq). The rats were euthanized at 5, 15, and 45 min post-injection (n = 4 per time point). Blood, heart, lungs, liver, spleen, kidney, urine, bone, brain, duodenum, small intestine, skin, and muscle were collected, weighed, and their radioactivity measured using a Wizard Gamma counter 1470 or 2480 (Wallac/PerkinElmer, Waltham, MA, USA). Entire organs were collected, except for larger organs like the liver and lungs, where only a portion was dissected. The radioactivity uptake in each organ was expressed as the percentage of the injected dose per gram of tissue (%ID/g).

rat TSPO = target: T3, rat TSPO (Rattus norvegicus, UniProt P16257); experiment: Competitive binding to rat TSPO vs [3H]PK 11195 (Eurofins assay #226700, rat heart membranes); conditions: vs DPA-713 / DPA-714
T3 construct: Heart of male Wistar derived rats weighing 175 ± 25 g are used to prepare peripheral benzodiazepine membrane receptors [TSPO]; tissue Eurofins Panlabs Discovery Services assay #226700; host or cells: rat heart (male Wistar derived)
Protocol: as §1
Supplementary Figure 12 Dose-response curves and binding affinities of DPA-813 and DPA-814 showing competitive binding to rat TSPO vs [^3H]PK 11195. Method from Eurofins: Heart of male Wistar derived rats weighing 175 ± 25 g are used to prepare peripheral benzodiazepine membrane receptors [TSPO] in modified Tris-HCl buffer pH 7.5. A 0.25 mg aliquot is incubated with 0.3 nM [^3H]PK 11195 for 15 minutes at 25 °C. Non-specific binding is estimated in the presence of 100 μM Dipyridamole. Membranes are filtered and washed, the filters are then counted to determine [^3H]PK 11195 specifically bound.

- Ki (WT human TSPO): 20.9 ± 5 nM
- Ki (A147T human TSPO): 260 ± 93.6 nM
SMILES: CCN(CC)C(=O)Cc1c(-c2ccc(OCCF)cc2)nn2c(C)cc(C)nc12 [DPA-714, reference compound]
- logD7.4 [1]: 2.4 ^b

- Brain, Parent (intact tracer) ([3]; 5 min post-injection): 99.5 ± 0.2%
- Plasma, Parent (Intact tracer) ([3]; 5 min post-injection): 88.1 ± 8.5%
- Brain, Parent (intact tracer) ([3]; 15 min post-injection): 99.5 ± 0.3%
- Plasma, Parent (Intact tracer) ([3]; 15 min post-injection): 89.4 ± 0.9%
- Brain, Parent (intact tracer) ([3]; 45 min post-injection): 99.3 ± 0.3%
- Plasma, Parent (Intact tracer) ([3]; 45 min post-injection): 79.1 ± 6.6% and 79%
- ratio of the binding quantifications [18F]DPA-814/[18F]DPA-714 (TSPO in human MS tissues; HAB human MS tissue): 0.9 ± 0.1
- ratio of the binding quantifications [18F]DPA-814/[18F]DPA-714 (TSPO in human MS tissues; LAB human MS tissue): 12.3 and 12
- ratio of the binding quantifications [18F]DPA-814/[18F]DPA-714 (TSPO in human MS tissues; MAB human MS tissue): 1.5 ± 0.2
- Biodistribution, Blood ([4]; 5 min post-injection): 0.41 ± 0.2 %ID/g
- Biodistribution, Bone ([4]; 5 min post-injection): 0.27±0.1 %ID/g
- Biodistribution, Brain ([4]; 5 min post-injection): 0.25 ± 0.03 %ID/g
- Biodistribution, Duodenum ([4]; 5 min post-injection): 1.44±0.1 %ID/g
- Biodistribution, Heart ([4]; 5 min post-injection): 3.31±0.3 %ID/g
- Biodistribution, Kidney ([4]; 5 min post-injection): 3.81±0.5 %ID/g
- Biodistribution, Liver ([4]; 5 min post-injection): 1.82±0.5 %ID/g
- Biodistribution, Lungs ([4]; 5 min post-injection): 21.91±1. %ID/g
- Biodistribution, Skin ([4]; 5 min post-injection): 0.09±0.0 %ID/g
- Biodistribution, Small intestine ([4]; 5 min post-injection): 0.92±0.1 %ID/g
- Biodistribution, Tail ([4]; 5 min post-injection): 6.89±9.8 %ID/g
- Biodistribution, Urine ([4]; 5 min post-injection): 0.01±0.0 %ID/g
- Biodistribution, muscle ([4]; 5 min post-injection): 0.05±0.0 %ID/g
- Biodistribution, spleen ([4]; 5 min post-injection): 3.00±0.6 %ID/g
- Biodistribution, Blood ([4]; 15 min post-injection): 0.31±0.1 %ID/g
- Biodistribution, Bone ([4]; 15 min post-injection): 0.29±0.1 %ID/g
- Biodistribution, Brain ([4]; 15 min post-injection): 0.28±0.0 %ID/g
- Biodistribution, Duodenum ([4]; 15 min post-injection): 1.71±0.2 %ID/g
- Biodistribution, Heart ([4]; 15 min post-injection): 4.39±0.2 %ID/g
- Biodistribution, Kidney ([4]; 15 min post-injection): 4.59±0.6 %ID/g
- Biodistribution, Liver ([4]; 15 min post-injection): 2.56 ± 0.2 %ID/g
- Biodistribution, Lungs ([4]; 15 min post-injection): 24.43±2. %ID/g
- Biodistribution, Skin ([4]; 15 min post-injection): 0.12±0.1 %ID/g
- Biodistribution, Small intestine ([4]; 15 min post-injection): 1.26±0.1 %ID/g
- Biodistribution, Tail ([4]; 15 min post-injection): 0.70±0.2 %ID/g
- Biodistribution, Urine ([4]; 15 min post-injection): 0.01±0.0 %ID/g
- Biodistribution, muscle ([4]; 15 min post-injection): 0.07±0.0 %ID/g
- Biodistribution, spleen ([4]; 15 min post-injection): 4.85±0.2 %ID/g
- Biodistribution, Blood ([4]; 45 min post-injection): 0.15 ± 0.01 %ID/g
- Biodistribution, Bone ([4]; 45 min post-injection): 0.22±0.0 %ID/g
- Biodistribution, Brain ([4]; 45 min post-injection): 0.20 ± 0.02 %ID/g
- Biodistribution, Duodenum ([4]; 45 min post-injection): 1.43±0.1 %ID/g
- Biodistribution, Heart ([4]; 45 min post-injection): 4.05±0.3 %ID/g
- Biodistribution, Kidney ([4]; 45 min post-injection): 4.10±0.2 %ID/g
- Biodistribution, Liver ([4]; 45 min post-injection): 1.97±0.4 %ID/g
- Biodistribution, Lungs ([4]; 45 min post-injection): 18.05±3. %ID/g
- Biodistribution, Skin ([4]; 45 min post-injection): 0.12±0.0 %ID/g
- Biodistribution, Small intestine ([4]; 45 min post-injection): 1.23±0.2 %ID/g
- Biodistribution, Tail ([4]; 45 min post-injection): 1.30±0.5 %ID/g
- Biodistribution, Urine ([4]; 45 min post-injection): 0.08±0.1 %ID/g
- Biodistribution, muscle ([4]; 45 min post-injection): 0.08±0.0 %ID/g
- Biodistribution, spleen ([4]; 45 min post-injection): 5.45±1.6 %ID/g
- higher affinity to rat TSPO compared to the parent compound (rat TSPO): 35 fold
SMILES: Cc1cc(C)n2nc(-c3ccc(OCC[18F])cc3)c(CC(=O)N(C)c3ccccc3)c2n1 [[^18F]DPA-814]
- higher uptake (AUC of time activity curve) in the spinal cord of EAE rats compared to CFA control [2]: 21%

SMILES: CCN(CC)C(=O)Cc1c(-c2ccc(OC)cc2)nn2c(C)cc(C)nc12 [DPA-713]
- logD7.4 [1]: 2.4 ^b
